Assay results: patent US20160176867A1, “MODIFIED BET-PROTEIN-INHIBITING DIHYDROQUINOXALINONES AND DIHYDROPYRIDOPYRAZINONES” (BAYER PHARMA AKTIENGESELLSCHAFT, priority 2013, published 2016)

Assays:
[1] = biological target: T1, BRD4 bromo domain 1 [BRD4(1)] (Homo sapiens, UniProt O60885); assay: BRD4/acetylated peptide H4 binding assay (TR-FRET), BRD4 bromo domain 1; conditions: inhibition of BRD4(1)/Ac-H4 peptide interaction
T1 construct: N-terminally His6-tagged BRD4(1) (amino acids 67-152); made in house; host or cells: E. coli
Summary of the method: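 TR-FRET (665/620 nm ratio) measuring displacement of biotinylated tetra-acetylated H4 peptide from His6-BRD4(1) (aa 67-152, E. coli; typically 10 nM) at pH 7.5. Compound (11 concentrations, 0.1 nM–20 μM, duplicates) was preincubated 10 min at 22°C, then 1 h at 22°C and ≥3 h at 4°C; IC50 from 4-parameter fit normalized to DMSO and no-BRD4 controls.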

[2] = tested on: CHL-1 cells; assay: Cell proliferation assay (alamarBlue), CHL-1; format: cell-based; conditions: Homo sapiens; CHL-1 (melanoma, BRAF wild-type), 96 hours
Procedure: In accordance with the invention, the ability of the substances to inhibit cell proliferation was determined. Cell viability was determined by means of the alamarBlue® reagent (Invitrogen) in a Victor X3 Multilabel Reader (Perkin Elmer). The excitation wavelength was 530 nm and the emission wavelength […].
The CHL-1 cells (ATCC, CRL-9446) were sown at a concentration of 1000 cells/well in 100 μl of growth medium (DMEM with glutamine, 10% FCS) on 96-well microtitre plates.
After overnight incubation at 37° C., the fluorescence values were determined (CI values). Then the plates were treated with various substance dilutions (1E-5 M, 3E-6 M, 1E-6 M, 3E-7 M, 1E-7 M, 3E-8 M, 1E-8 M) and incubated at 37° C. over 96 hours (MOLM-13, B16F10, CHL-1 cells) or 120 hours (MOLP-8 cells). Subsequently, the fluorescence values were determined (CO values). For the data analysis, the CI values were subtracted from the CO values and the results were compared between cells which had been treated with various dilutions of the substance or only with buffer solution. The IC50 values (substance concentration needed for 50% inhibition of cell proliferation) were calculated therefrom.

[3] = tested on: MOLM-13 cells; assay: Cell proliferation assay (alamarBlue), MOLM-13; format: cell-based; conditions: Homo sapiens; MOLM-13 (acute myeloid leukaemia), 96 hours
Summary of the method: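 Cells in RPMI1640 with 10% FCS, read by alamarBlue fluorescence (ex 530, em 590 nm) after overnight plating and again after 96 h compound exposure at 37° C (1E-5 to 1E-8 M). Baseline-subtracted signal compared with buffer-treated cells to derive IC50.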

Compound: C[C@@H]1C(=O)N(C)c2ccc(Nc3cccc(S(=O)(=O)N4CCN(CC(F)(F)F)CC4)c3)nc2N1C1CCNCC1 [Example 126, (3R)-1,3-dimethyl-4-(piperidin-4-yl)-6-[(3-{[4-(2,2,2-trifluoroethyl)piperazin-1-yl]sulphonyl}phenyl)amino]-3,4-dihydropyrido[2,3-b]pyrazin-2(1H)-one]
- IC50 [1]: 38 nM
- IC50 [2]: 202 nM
- IC50 [3]: 84 nM

Compound: C[C@@H]1C(=O)N(C)c2ccc(Nc3cccc(S(=O)(=O)N[C@H]4CC[C@H](N5CCN(CC6CC6)CC5)CC4)c3)nc2N1C1CCNCC1 [Example 127, N-{trans-4-[4-(cyclopropylmethyl)piperazin-1-yl]cyclohexyl}-3-{[(3R)-1,3-dimethyl-2-oxo-4-(piperidin-4-yl)-1,2,3,4-tetrahydropyrido[2,3-b]pyrazin-6-yl]amino}-benzenesulphonamide]
- IC50 [1]: 47 nM
- IC50 [2]: > 20000 nM
- IC50 [3]: > 10000 nM

Compound: C[C@@H]1C(=O)N(C)c2ccc(Nc3cccc(S(=O)(=O)N(C)C)c3)cc2N1C1CCNCC1 [Example 129, 3-{[(3R)-1,3-dimethyl-2-oxo-4-(piperidin-4-yl)-1,2,3,4-tetrahydroquinoxalin-6-yl]amino}-N,N-dimethylbenzenesulphon-amide]
- IC50 [1]: 45 nM
- IC50 [2]: 945 nM
- IC50 [3]: 536 nM

Compound: C[C@@H]1C(=O)N(C)c2ccc(Nc3cccc(C(=O)N[C@H]4CC[C@H](N5CCN(CC6CC6)CC5)CC4)c3)nc2N1C1CCNCC1 [Example 131, N-{trans-4-[4-(cyclo-propylmethyl)piperazin-1-yl]cyclohexyl}-3-{[(3R)-1,3-dimethyl-2-oxo-4-(piperidin-4-yl)-1,2,3,4-tetrahydropyrido[2,3-b]pyrazin-6-yl]amino}benzamide]
- IC50 [1]: 251 nM
- IC50 [2]: > 20000 nM
- IC50 [3]: > 10000 nM

Compound: C[C@@H]1C(=O)N(C)c2ccc(Nc3cccc(C(=O)N(C)C)c3)cc2N1C1CCNCC1 [Example 133, 3-{[(3R)-1,3-dimethyl-2-oxo-4-(piperidin-4-yl)-1,2,3,4-tetrahydroquinoxalin-6-yl]amino}-N,N-dimethylbenzamide]
- IC50 [1]: 124 nM
- IC50 [2]: > 10000 nM
- IC50 [3]: > 10000 nM
